Reference: patent US20220047494A1, “ANTIBACTERIAL, DEODORIZATION, EASING OF ACNE AND ATOPY OR SKIN CALMING-FUNCTIONAL COMPOSITION FOR Y-ZONE CLEANLINESS CONTAINING QUERCUS ACUTISSIMA SAP AND ZINC RICINOLEATE” (MEDICLASSIC.CO.LTD, priority 2020, published 2022)

Test system: Staphylococcus epidermidis (KTTC12228)
Test: Paper disk diffusion antibacterial activity
Format: cell-based
Conditions: paper disk 8 mm, mean ± SD (n = 3)
Text: In Experimental Example according to the present invention, Propionibacterium acnes (KCTC3314), which is an acne-causing pathogen, Candida albicans (ATCC 10231), which is a yeast that causes inflammatory or bacterial skin diseases, and Staphylococcus epidermidis (KTTC12228), which is gram-positive skin flora, were used. Propionibacterium acnes (KCTC3314) was inoculated into reinforced clostridial (RC) medium, sealed using a […] system in an anaerobic culture tank, and then anaerobically cultured at 37° C. for two days. As an aerobic strain of Candida albicans (ATCC 10231), Sabaurd Dextrose Agar (Difco. USA) was used, inoculated with the bacteria, and cultured in an incubator at 25° C. for 24 hours. As an aerobic strain, Staphylococcus epidermidis (KTTC12228) was inoculated into Mueller-Hinton medium and cultured at 37° C. for 24 hours before use. With respect to the ingredients according to Preparation Example and Comparative Preparation Example, an antibacterial activity against Staphylococcus epidermidis (KTC12228) was measured by using a paper disk diffusion method. Specifically, the evaluation of antibacterial activity against Staphylococcus epidermidis (KTTC12228), which is a secondary acne-causing pathogen, was performed by carrying out a cultivation with Muller-Hinton medium at 37° C. for 24 hours, and evenly spreading a bacterial suspension adjusted at a constant concentration (absorbance of 0.5 at an optical density of 620 nm) on an RC agar plate using a sterile cotton swab. After that, the plate was dried and a paper disk (Φ 8 mm, […]. USA) was placed on the surface of the plate inoculated with the strain, after which samples according to Preparation Example 2 and Comparative Preparation Examples 1 to 4, the positive control tetracycline and a mixed sample of Preparation Examples 1 and 2 (6:4) were absorbed thereon for each concentration. The sample-treated plate was cultured in an anaerobic culture tank for three days using the […] system, after which the antibacterial activity was measured by the size of the inhibition zone around the disk, and the results thereof are shown in table 2 below, respectively.

CN(C)[C@@H]1C(O)=C(C(N)=O)C(=O)[C@@]2(O)C(O)=C3C(=O)c4c(O)cccc4[C@@](C)(O)[C@H]3C[C@@H]12 [Tetracycline, tetracycline]
zone of inhibition at 1000 µg/disc (Staphylococcus epidermidis, concentration 1 mg, read-out: Zone of inhibition (diameter in mm)): ~12 mm
zone of inhibition at 5000 µg/disc (Staphylococcus epidermidis, concentration 5 mg, read-out: Zone of inhibition (diameter in mm)): ~14 mm
Zone of inhibition (diameter in mm) (concentration 1 mg): 12.82 ± 0.43 mm
Zone of inhibition (diameter in mm) (concentration 5 mg): 14.92 ± 0.23 mm
